Results reported in patent US11535611B2, “Pyrazolo[3,4-B]pyridines and imidazo[1,5-B]pyridazines as PDE1 inhibitors” (H. Lundbeck A/S, priority 2017, dated 2022).

How the values were obtained:
Type in all cases: biochemical
[1] = molecular target: PDE1A (Homo sapiens (Human), UniProt P54750); experiment: PDE1 inhibition assay, PDE1A; conditions: for inhibition at 10 µM: @ 10 μM compound; for IC50: 15 nM tritium labelled cAMP, 1 hr at room temperature, SPA beads; for inhibition at 1 µM: @ 1 μM compound
Chain of PDE1A (P54750 whole entry): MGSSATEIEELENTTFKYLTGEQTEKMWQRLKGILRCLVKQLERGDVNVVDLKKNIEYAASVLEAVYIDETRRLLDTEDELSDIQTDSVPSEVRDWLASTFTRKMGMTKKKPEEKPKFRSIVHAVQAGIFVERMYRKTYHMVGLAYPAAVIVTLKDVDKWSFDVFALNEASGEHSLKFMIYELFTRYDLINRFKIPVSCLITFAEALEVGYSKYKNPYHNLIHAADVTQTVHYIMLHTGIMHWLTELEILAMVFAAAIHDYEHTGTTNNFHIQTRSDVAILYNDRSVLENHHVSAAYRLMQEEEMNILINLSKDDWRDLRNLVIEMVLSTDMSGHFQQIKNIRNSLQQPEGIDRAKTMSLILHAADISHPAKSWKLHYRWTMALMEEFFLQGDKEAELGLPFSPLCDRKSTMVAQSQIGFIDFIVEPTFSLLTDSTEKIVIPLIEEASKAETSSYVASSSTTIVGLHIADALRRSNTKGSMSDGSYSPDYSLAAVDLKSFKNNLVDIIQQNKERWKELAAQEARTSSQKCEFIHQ
Method: (§1) PDE1A, PDE1B and PDE1C assays were performed as follows: the assays were performed in 60 μL samples containing a fixed amount of the PDE1 enzyme (sufficient to convert 20-25% of the cyclic nucleotide substrate), a buffer (50 mM HEPES (4-(2-hydroxyethyl)-1-piperazineethanesulfonic acid) pH 7.6; 10 mM MgCl2; 0.02% Tween20), 0.1 mg/ml BSA (bovine serum albumin), 15 nM tritium labelled cAMP and varying amounts of inhibitors. Reactions were initiated by addition of the cyclic nucleotide substrate, and reactions were allowed to proceed for 1 hr at room temperature before being terminated through mixing with 20 μL (0.2 mg) yttrium silicate SPA beads (PerkinElmer). The beads were allowed to settle for 1 hour in the dark before the plates were counted in a Wallac 1450 Microbeta counter. The measured signals were converted to activity relative to an uninhibited control (100%) and IC50 values were calculated using XIFit (model 205, IDBS).

[2] = molecular target: PDE1B (Homo sapiens (Human), UniProt Q01064); experiment: PDE1 inhibition assay, PDE1B; conditions: for IC50: 15 nM tritium labelled cAMP, 1 hr at room temperature, SPA beads, read-out: PDE1 B, IC50
Chain of PDE1B (Q01064 whole entry): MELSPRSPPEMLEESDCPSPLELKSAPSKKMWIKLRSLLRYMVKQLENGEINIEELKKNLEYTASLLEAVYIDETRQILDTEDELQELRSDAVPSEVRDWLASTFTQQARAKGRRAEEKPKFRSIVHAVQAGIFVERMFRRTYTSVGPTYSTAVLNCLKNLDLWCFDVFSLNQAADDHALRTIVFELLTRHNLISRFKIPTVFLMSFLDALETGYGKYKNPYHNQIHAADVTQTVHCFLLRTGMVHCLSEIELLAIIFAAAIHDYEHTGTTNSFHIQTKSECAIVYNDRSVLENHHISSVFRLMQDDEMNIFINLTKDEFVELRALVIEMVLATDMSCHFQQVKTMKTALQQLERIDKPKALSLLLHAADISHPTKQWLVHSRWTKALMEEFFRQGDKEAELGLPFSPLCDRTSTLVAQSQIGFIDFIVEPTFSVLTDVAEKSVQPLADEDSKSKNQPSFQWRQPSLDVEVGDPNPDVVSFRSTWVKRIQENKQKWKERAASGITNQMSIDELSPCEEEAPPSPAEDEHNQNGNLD
Method: as §1

[3] = molecular target: PDE1C (Homo sapiens (Human), UniProt Q14123); experiment: PDE1 inhibition assay, PDE1C; conditions: for IC50: 15 nM tritium labelled cAMP, 1 hr at room temperature, SPA beads, read-out: PDE1 C, IC50; for inhibition at 10 µM: @ 10 μM compound, read-out: PDE1 C, % inhibition @ 10 μM; for inhibition at 1 µM: @ 1 μM compound, read-out: PDE1 C, % inhibition @ 1 μM
Chain of PDE1C (Q14123 whole entry): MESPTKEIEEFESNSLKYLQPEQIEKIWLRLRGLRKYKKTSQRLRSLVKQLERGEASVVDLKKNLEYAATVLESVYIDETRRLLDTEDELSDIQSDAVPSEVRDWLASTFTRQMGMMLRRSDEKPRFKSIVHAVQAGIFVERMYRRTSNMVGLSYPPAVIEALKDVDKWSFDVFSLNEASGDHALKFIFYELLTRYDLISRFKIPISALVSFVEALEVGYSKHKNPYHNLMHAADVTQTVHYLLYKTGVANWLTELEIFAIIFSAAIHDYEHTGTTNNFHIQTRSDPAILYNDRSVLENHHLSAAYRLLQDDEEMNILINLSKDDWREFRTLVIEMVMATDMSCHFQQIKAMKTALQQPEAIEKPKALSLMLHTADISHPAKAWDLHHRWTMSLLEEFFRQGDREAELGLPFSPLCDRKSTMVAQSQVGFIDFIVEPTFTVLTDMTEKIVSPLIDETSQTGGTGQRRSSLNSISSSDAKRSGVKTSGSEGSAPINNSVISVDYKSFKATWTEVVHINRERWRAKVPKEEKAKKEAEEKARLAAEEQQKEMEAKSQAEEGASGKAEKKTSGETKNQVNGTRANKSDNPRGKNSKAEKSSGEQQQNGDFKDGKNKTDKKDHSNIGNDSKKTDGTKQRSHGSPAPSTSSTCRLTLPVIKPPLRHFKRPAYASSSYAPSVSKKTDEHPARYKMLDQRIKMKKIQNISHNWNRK
Method: as §1

Row | SMILES | inhibition at 10 µM [1] [%] | IC50 [2] [nM] | IC50 [3] [nM] | inhibition at 10 µM [3] [%] | IC50 [1] [nM] | inhibition at 10 µM ([2]; @ 10 μM compound, read-out: PDE1 B, % inhibition @ 10 μM) [%] | inhibition at 1 µM [1] [%] | inhibition at 1 µM [3] [%]
1 | COc1ncc(C#N)cc1-c1cc(N[C@@H]2CCOC2)c2c(cnn2C(C)C)n1 [Example 54, 5-[1-isopropyl-7-[[(3R)-tetrahydrofuran-3-yl]amino]pyrazolo[4,3-b]pyridin-5-yl]-6-methoxy-pyridine-3-carbonitrile] | 59 | 1530 | 2400 | – | – | – | – | –
2 | CCOc1ncc(C#N)cc1-c1cc(N[C@@H]2CCOC2)c2c(cnn2C(C)C)n1 [Example 55, 6-ethoxy-5-[1-isopropyl-7-[[(3R)-tetrahydrofuran-3-yl]amino]pyrazolo[4,3-b]pyridin-5-yl]pyridine-3-carbonitrile] | 69 | 1380 | 2500 | – | – | – | – | –
3 | CCc1ncccc1-c1cc(N[C@@H]2CCOC2)c2c(cnn2C(C)C)n1 [Example 56, 5-(2-ethyl-3-pyridyl)-1-isopropyl-N-[(3R)-tetrahydrofuran-3-yl]pyrazolo[4,3-b]pyridin-7-amine] | 51 | 1520 | – | 59 | – | – | – | –
4 | COc1ccc(Cc2cc(N[C@@H]3CCOC3)c3c(cnn3C(C)C)n2)cc1 [Example 57, 1-isopropyl-5-[(4-methoxyphenyl)methyl]-N-[(3R)-tetrahydrofuran-3-yl]pyrazolo[4,3-b]pyridin-7-amine] | – | 303 | 506 | – | 874 | – | – | –
5 | COCc1ncccc1-c1cc(N[C@@H]2CCOC2)c2c(cnn2C(C)C)n1 [Example 58, 1-isopropyl-5-[2-(methoxymethyl)-3-pyridyl]-N-[(3R)-tetrahydrofuran-3-yl]pyrazolo[4,3-b]pyridin-7-amine] | 52 | 2190 | – | 31 | – | – | – | –
6 | CCOc1ncccc1-c1ccc2c(n1)c(C)nn2C(C)C [Example 59, 5-(2-ethoxy-3-pyridyl)-1-isopropyl-3-methyl-pyrazolo[4,3-b]pyridine] | – | 26 | 180 | – | 52 | – | – | –
7 | Cc1cc2c(nc1-c1ccccc1)c(C)nn2C(C)C [Example 60, 1-isopropyl-3,6-dimethyl-5-phenyl-pyrazolo[4,3-b]pyridine] | – | 122 | 198 | – | 225 | – | – | –
8 | COc1ncccc1-c1nc2c(C)nn(C(C)C)c2cc1C [Example 61, 1-isopropyl-5-(2-methoxy-3-pyridyl)-3,6-dimethyl-pyrazolo[4,3-b]pyridine] | – | 84 | 236 | – | 288 | – | – | –
9 | COc1ccccc1-c1nc2c(C)nn(C(C)C)c2cc1C [Example 62, 1-isopropyl-5-(2-methoxyphenyl)-3,6-dimethyl-pyrazolo[4,3-b]pyridine] | – | 159 | 568 | – | 694 | – | – | –
10 | CCOc1ncccc1-c1nc2c(C)nn(C(C)C)c2cc1C [Example 63, 5-(2-ethoxy-3-pyridyl)-1-isopropyl-3,6-dimethyl-pyrazolo[4,3-b]pyridine] | – | 16 | 175 | – | 86 | – | – | –
11 | CCCOc1ncccc1-c1nc2c(C)nn(C(C)C)c2cc1C [Example 64, 1-isopropyl-3,6-dimethyl-5-(2-propoxy-3-pyridyl)pyrazolo[4,3-b]pyridine] | – | 25 | 220 | – | 118 | – | – | –
12 | CCOc1ncccc1-c1cc(NC)c2c(n1)c(C)nn2C(C)C [Example 65, 5-(2-ethoxy-3-pyridyl)-1-isopropyl-N,3-dimethyl-pyrazolo[4,3-b]pyridin-7-amine] | – | 7 | 111 | – | 50 | – | – | –
13 | CCNc1cc(-c2cccnc2OCC)nc2c(C)nn(C(C)C)c12 [Example 66, 5-(2-ethoxy-3-pyridyl)-N-ethyl-1-isopropyl-3-methyl-pyrazolo[4,3-b]pyridin-7-amine] | – | 5 | 161 | – | 60 | – | – | –
14 | CCOc1ncccc1-c1cc(NCC2CC(=O)N(C)C2)c2c(n1)c(C)nn2C(C)C (stereo not drawn) [Example 68, 4-[[[5-(2-ethoxy-3-pyridyl)-1-isopropyl-3-methyl-pyrazolo[4,3-b]pyridin-7-yl]amino]methyl]-1-methyl-pyrrolidin-2-one] | – | 12 | 88 | – | 53 | – | – | –
15 | CCOc1ncccc1-c1cc(N)c2c(n1)c(C)nn2C(C)C [Example 69, 5-(2-ethoxy-3-pyridyl)-1-isopropyl-3-methyl-pyrazolo[4,3-b]pyridin-7-amine] | – | 13 | 129 | – | 62 | – | – | –
16 | CCOc1ncccc1-c1ccc2c(cnn2C(C)C)n1 [Example 70, 5-(2-ethoxy-3-pyridyl)-1-isopropyl-pyrazolo[4,3-b]pyridine] | – | 99 | 2170 | – | 836 | – | – | –

The remaining lines, values ahead:

Row | inhibition at 10 µM [1] [%] | IC50 [2] [nM] | IC50 [3] [nM] | inhibition at 10 µM [3] [%] | IC50 [1] [nM] | inhibition at 10 µM ([2]; @ 10 μM compound, read-out: PDE1 B, % inhibition @ 10 μM) [%] | inhibition at 1 µM [1] [%] | inhibition at 1 µM [3] [%] | SMILES
17 | – | 17 | 99 | – | 74 | – | – | – | CCOc1ncccc1-c1nc2c(C)nc(C(C)C)n2cc1C [Example 71, 2-(2-ethoxy-3-pyridyl)-6-isopropyl-3,8-dimethyl-imidazo[1,5-a]pyrimidine]
18 | – | 34 | 213 | – | 96 | – | – | – | CCOc1ncccc1-c1ccn2c(C(C)C)nc(C)c2n1 [Example 72, 2-(2-ethoxy-3-pyridyl)-6-isopropyl-8-methyl-imidazo[1,5-a]pyrimidine]
19 | – | 296 | 2090 | – | 1550 | – | – | – | CCOc1ncccc1-c1ccn2c(C3CCC3)nc(C)c2n1 [Example 73, 6-cyclobutyl-2-(2-ethoxy-3-pyridyl)-8-methyl-imidazo[1,5-a]pyrimidine]
20 | – | 121 | 1180 | – | 394 | – | – | – | CCOc1ncccc1-c1ccn2c(C3CC3)nc(C)c2n1 [Example 74, 6-cyclopropyl-2-(2-ethoxy-3-pyridyl)-8-methyl-imidazo[1,5-a]pyrimidine]
21 | – | 239 | 730 | – | 448 | – | – | – | CCOc1ncccc1-c1ccn2c(C3(C)COC3)nc(C)c2n1 [Example 77, 2-(2-ethoxy-3-pyridyl)-8-methyl-6-(3-methyloxetan-3-yl)imidazo[1,5-a]pyrimidine]
22 | – | 207 | 717 | – | 321 | – | – | – | CCOc1ncccc1-c1ccn2c(CC(F)(F)F)nc(C)c2n1 [Example 78, 2-(2-ethoxy-3-pyridyl)-8-methyl-6-(2,2,2-trifluoroethyl)imidazo[1,5-a]pyrimidine]
23 | – | 78 | 632 | – | 406 | – | – | – | CCOc1ncccc1-c1ccn2c(C3COC3)nc(C)c2n1 [Example 79, 2-(2-ethoxy-3-pyridyl)-8-methyl-6-(oxetan-3-yl)imidazo[1,5-a]pyrimidine]
24 | – | 591 | 2280 | – | 3230 | – | – | – | CCOc1ncccc1-c1ccn2c(C3CCCC3)nc(C)c2n1 [Example 80, 6-cyclopentyl-2-(2-ethoxy-3-pyridyl)-8-methyl-imidazo[1,5-a]pyrimidine]
25 | 29 | – | – | 28 | – | 54 | – | – | CCOc1ncccc1-c1ccn2c(C(C)(C)C)nc(C)c2n1 [Example 82, 6-tert-butyl-2-(2-ethoxy-3-pyridyl)-8-methyl-imidazo[1,5-a]pyrimidine]
26 | – | 536 | – | – | – | – | 23 | 56 | CCOc1ncccc1-c1cc(N2CC[C@@H](OC)C2)c2c(cnn2C)n1 [Example 85, 5-(2-ethoxy-3-pyridyl)-7-[(3R)-3-methoxypyrrolidin-1-yl]-1-methyl-pyrazolo[4,3-b]pyridine]
27 | – | 536 | – | – | – | – | 22 | 20 | CCOc1ncccc1-c1cc(N[C@@H]2CCC[C@H]2OC)c2c(cnn2C)n1 [Example 86, 5-(2-ethoxy-3-pyridyl)-N-[(1R,2R)-2-methoxycyclopentyl]-1-methyl-pyrazolo[4,3-b]pyridin-7-amine]
28 | – | 311 | – | – | – | – | 16 | 47 | CCOc1ncccc1-c1cc(NC2CCC(OC)C2)c2c(cnn2C)n1 (stereo not drawn) [Example 88, 5-(2-ethoxy-3-pyridyl)-N-(3-methoxycyclopentyl)-1-methyl-pyrazolo[4,3-b]pyridin-7-amine]
